System: cellular gene expression in HeLa rtTA HIV∆Mls cells

Cc1cc(NCc2cccnc2)n2ncc(-c3ccc(Cl)cc3)c2n1 [Compound 791, 3-(4-chlorophenyl)-5-methyl-N-(3-pyridinylmethyl)pyrazolo[1,5-a]pyrimidin-7-amine]
AARS Mean fold change: 2.833
ABCC3 Mean fold change: 2.692
ABCG1 Mean fold change: 3.311
ABHD6 Mean fold change: 1.566
AC004490.2 Mean fold change: 2.204
AC006486.1 expression fold change: 0.690
AC008763.1 expression fold change: 0.679
AC009133.2 Mean fold change: 1.588
AC010442.1 Mean fold change: 1.579
AC013356.3 expression fold change: 1.345
AC037487.1 expression fold change: 1.347
AC068020.2 Mean fold change: 2.561
AC092295.7 expression fold change: 0.786
AC135352.1 Mean fold change: 1.465
AC138904.2 Mean fold change: 2.431
ACADVL Mean fold change: 1.427
ACAP3 expression fold change: 0.896
ACER2 expression fold change: 1.385
ACN9 expression fold change: 1.202
ACOT9 expression fold change: 0.729
ACTN1 expression fold change: 0.801
ADD1 expression fold change: 0.880
ADI1 expression fold change: 0.759
ADO expression fold change: 1.398
AGPAT2 expression fold change: 0.738
AGPAT9 Mean fold change: 1.761
AGXT2L2 Mean fold change: 1.839
AHCTF1 expression fold change: 1.155
AIDA expression fold change: 1.199
AIFM1 expression fold change: 1.118
AKIRIN2 expression fold change: 1.270
ALDH2 Mean fold change: 1.928
ALDOC expression fold change: 0.728
ALG5 expression fold change: 1.288
ALKBH8 expression fold change: 1.320
ALX1 expression fold change: 1.051
ANKHD1 expression fold change: 1.136
ANKRD40 expression fold change: 1.260
ANKRD50 expression fold change: 1.377
ANKS1A expression fold change: 0.869
ANXA5 expression fold change: 0.844
ANXA6 expression fold change: 0.632
AP2M1 expression fold change: 0.841
AP3S2 expression fold change: 1.386
AP000926.1 Mean fold change: 1.726
APBA3 expression fold change: 1.129
APOBEC3B expression fold change: 0.520
ARF1 expression fold change: 0.787
ARF3 expression fold change: 0.882
ARG2 Mean fold change: 3.609
ARHGAP11A expression fold change: 0.778
ARHGAP26 Mean fold change: 1.819
ARHGEF2 Mean fold change: 2.222
ARHGEF4 Mean fold change: 1.690
ARL4D expression fold change: 1.406
ARL17B Mean fold change: 1.427
ARMC10 expression fold change: 1.383
ARNTL Mean fold change: 1.815
ARPC5 expression fold change: 0.694
ARSJ expression fold change: 1.309
ASB7 expression fold change: 1.181
ASB8 expression fold change: 1.184
ASCC1 expression fold change: 1.134
ASNS Mean fold change: 5.898
ASNSD1 expression fold change: 1.208
ATF4 Mean fold change: 1.683
ATG4B expression fold change: 1.240
ATG12 expression fold change: 1.178
ATG16L1 expression fold change: 1.132
ATIC expression fold change: 1.115
ATP2B1 Mean fold change: 1.479
ATP5H expression fold change: 1.145
ATP6AP1L Mean fold change: 1.979
ATP6V0A1 expression fold change: 0.795
ATP6V1B2 expression fold change: 1.261
ATP8B1 expression fold change: 0.527
ATXN7L2 expression fold change: 1.076
AUP1 expression fold change: 1.231
AVL9 expression fold change: 1.338
AXIN1 expression fold change: 1.266
B3GNT1 expression fold change: 0.674
B3GNT5 Mean fold change: 2.008
B4GALT5 expression fold change: 1.380
BAT3 expression fold change: 0.841
BAZ1B expression fold change: 1.159
BCAR1 expression fold change: 0.869
BCAR3 Mean fold change: 1.528
BCL7A expression fold change: 1.302
BCOR expression fold change: 0.835
BCORL1 expression fold change: 0.826
BEST1 Mean fold change: 1.710
BHLHB9 expression fold change: 0.836
BICD1 expression fold change: 1.280
BIVM expression fold change: 1.241
BMP2K expression fold change: 1.246
BMPR1B expression fold change: 0.758
BRWD2 expression fold change: 1.126
BST2 expression fold change: 0.606
BTRC expression fold change: 1.086
BUD13 expression fold change: 1.160
C1D expression fold change: 0.907
C1orf27 expression fold change: 1.263
C1orf43 Mean fold change: 1.578
C1orf103 expression fold change: 1.312
C1orf109 expression fold change: 1.133
C1orf115 expression fold change: 0.712
C1orf131 expression fold change: 1.232
C2orf18 Mean fold change: 2.057
C2orf44 expression fold change: 1.212
C2orf49 expression fold change: 1.330
C2orf60 Mean fold change: 1.552
C3orf19 expression fold change: 1.302
C3orf59 expression fold change: 0.622
C4orf23 expression fold change: 1.124
C4orf27 expression fold change: 1.269
C4orf32 Mean fold change: 1.456
C4orf43 expression fold change: 1.083
C5orf13 expression fold change: 0.675
C5orf15 expression fold change: 0.799
C5orf30 expression fold change: 1.191
C5orf37 expression fold change: 1.270
C5orf45 expression fold change: 1.325
C5orf51 expression fold change: 1.347
C6orf48 Mean fold change: 2.042
C6orf145 expression fold change: 0.730
C7orf23 expression fold change: 1.243
C7orf25 expression fold change: 1.354
C7orf27 expression fold change: 0.879
C7orf42 expression fold change: 0.864
C7orf44 expression fold change: 1.193
C9orf3 expression fold change: 0.575
C9orf6 expression fold change: 1.317
C9orf46 expression fold change: 1.230
C9orf114 expression fold change: 1.133
C9orf163 expression fold change: 0.820
C10orf76 expression fold change: 0.797
C10orf114 expression fold change: 0.622
C11orf17 Mean fold change: 1.495
C11orf57 expression fold change: 1.379
C11orf73 expression fold change: 1.274
C12orf35 expression fold change: 1.357
C12orf41 Mean fold change: 1.427
C12orf65 expression fold change: 1.231
C12orf73 expression fold change: 1.310
C13orf23 expression fold change: 1.356
C14orf79 Mean fold change: 1.679
C14orf104 expression fold change: 1.167
C14orf147 expression fold change: 0.683
C14orf167 Mean fold change: 1.721
C15orf61 expression fold change: 1.088
C16orf63 expression fold change: 1.203
C16orf72 expression fold change: 1.363
C17orf75 expression fold change: 1.209
C17orf80 expression fold change: 1.234
C18orf19 expression fold change: 1.208
C18orf25 expression fold change: 1.336
C18orf45 expression fold change: 1.218
C19orf28 expression fold change: 0.696
C19orf55 expression fold change: 1.216
C19orf57 Mean fold change: 2.062
C20orf29 expression fold change: 0.759
C20orf177 expression fold change: 1.123
C22orf23 Mean fold change: 1.568
CA5B Mean fold change: 1.804
CALD1 expression fold change: 0.520
CAP2 expression fold change: 0.518
CAPN1 expression fold change: 0.764
CARS Mean fold change: 2.332
CASC5 expression fold change: 0.767
CASP8 expression fold change: 1.182
CAT Mean fold change: 1.598
CAV2 expression fold change: 0.581
CC2D2A expression fold change: 0.869
CCBL2 expression fold change: 1.248
CCDC22 expression fold change: 1.134
CCDC25 expression fold change: 1.260
CCDC40 Mean fold change: 1.891
CCDC41 expression fold change: 1.182
CCDC55 expression fold change: 1.136
CCDC85C expression fold change: 0.665
CCDC91 Mean fold change: 1.516
CCDC92 expression fold change: 1.319
CCDC99 expression fold change: 0.607
CCDC102A expression fold change: 0.591
CCDC150 expression fold change: 0.840
CCNB1IP1 Mean fold change: 1.940
CCNJ expression fold change: 1.250
CCNT2 expression fold change: 1.170
CD276 expression fold change: 0.827
CDADC1 expression fold change: 1.201
CDC42EP3 expression fold change: 0.641
CDK1 expression fold change: 0.737
CDK4 expression fold change: 1.239
CDK8 expression fold change: 1.082
CDK17 expression fold change: 1.247
CDKL1 expression fold change: 0.840
CDKN2C expression fold change: 0.598
CEBPG Mean fold change: 3.507
CEP70 expression fold change: 0.860
CES2 Mean fold change: 1.537
CGN expression fold change: 0.519
CGRRF1 Mean fold change: 1.453
CHAC1 Mean fold change: 6.989
CHCHD4 expression fold change: 1.327
CHN1 expression fold change: 0.798
CHN2 expression fold change: 1.345
CLCN2 expression fold change: 1.278
CLCN5 Mean fold change: 1.584
CLEC2D Mean fold change: 1.905
CLIC4 Mean fold change: 1.468
CLPTM1L expression fold change: 0.747
CLUAP1 Mean fold change: 1.416
CNN2 expression fold change: 0.712
CNNM3 expression fold change: 0.809
CNOT4 expression fold change: 1.191
COG1 expression fold change: 1.328
COG8 expression fold change: 1.183
COL4A3BP Mean fold change: 1.572
COMMD1 expression fold change: 0.832
COMMD4 expression fold change: 0.856
COPS7B Mean fold change: 1.473
COX7A2L expression fold change: 1.194
COX7A2 expression fold change: 0.949
COX19 expression fold change: 1.369
CPD Mean fold change: 1.588
CREB1 expression fold change: 1.234
CRTC3 expression fold change: 0.714
CSE1L expression fold change: 0.867
CSGALNACT2 expression fold change: 1.343
CSNK1A1 Mean fold change: 1.528
CSNK2A1 expression fold change: 1.245
CSRNP2 expression fold change: 1.269
CSRP2BP Mean fold change: 1.435
CSRP2 expression fold change: 0.574
CST3 expression fold change: 1.145
CTC-241N9.1 Mean fold change: 1.850
CTD-2526A2.1 Mean fold change: 1.524
CTH Mean fold change: 2.646
CTNND1 expression fold change: 0.683
CTSL1 Mean fold change: 1.489
CTTNBP2 expression fold change: 0.629
CUEDC2 expression fold change: 1.278
CWC25 expression fold change: 1.169
CXADR expression fold change: 1.102
CYFIP1 expression fold change: 0.887
CYP2R1 Mean fold change: 1.818
CYP2S1 expression fold change: 1.098
CYTH3 expression fold change: 0.536
DAB2 expression fold change: 0.623
DAG1 expression fold change: 0.608
DAGLB expression fold change: 0.867
DBF4B expression fold change: 0.760
